{"source": "paper PMC8333425", "about": "“Discovery of a dual Ras and ARF6 inhibitor from a GPCR endocytosis screen” (Nature Communications, 2021)", "assay_type_in_all_cases": "cell-based, human", "key": {"[1]": {"test_system": "ERK1/2 activation by AT1R", "assay": "Western blot of AT1R-mediated ERK1/2 phosphorylation", "settings": "for p-ERK1/2 over ERK1/2, normalized to basal (0 min), AT1R: Comp 21 50 μM; for p-ERK1/2 over ERK1/2, normalized to basal (0 min), AT1R / ERK 1/2 activation, AT1R (p-ERK1/2 over ERK1/2, fold over basal): individual experiments", "protocol": "HEK293SL cells (10^5 cells per well) were seeded in a poly-L-lysine-coated six-well plate and transiently transfected with 3 μg Flag-AT1R, HA-B2R or HA-β2AR and/or 500 ng Flag-MEK1-WT, Flag-MEK1-DD, Flag-BRAF-WT, Flag-BRAF-V600E, Flag-K-Ras-WT, Flag-K-Ras-G12V, HA-ARF6-WT, or HA-ARF6-T27N. Gαq/11 KO and βarr1/2 KO cells were seeded onto 100 mm dishes at a density of 10^6 cells per dish. Next day, cells were transfected with 3 μg AT1R alone or along with 500 ng of β-arrestin2 using PEI. After 18 h of transfection, cells were detached and re-seeded onto poly-L-lysine coated 12-well plates (~1.5–2 × 10^5cells/well) for subsequent experiments. Forty-eight hours post transfection, in a 37 °C water bath, cells were serum-starved for 30 min, pretreated with DMSO (0.1%) or compound 21/Rasarfin (50 µM or at indicated concentrations) for 30 min, then stimulated or not with the indicated ligand [AngII (1 µM), BK (1 µM), Iso (10 µM) or EGF (100 ng/ml)] at indicated times. Cells were put on ice, washed with PBS and solubilized in 2x laemmli buffer (250 mM Tris–HCl pH 6.8, 2% SDS (w/v), 10% glycerol (v/v), 0.01% bromophenol blue (w/v) and 5% β-mercaptoethanol (v/v)) by heating at 65 °C for 15 min. Lysates were resolved on 10 or 14% SDS-PAGE, transferred to nitrocellulose membranes and immunoblotted for p-ERK1/2, ERK1/2, p-Akt, Akt, HA, Myc, β-actin or FLAG. ImageLab 5.2 software was used to quantify the digital blots as fold of the phosphorylated protein over total protein, which were then normalized as indicated in the figure legends. Uncropped immunoblots are provided in the Source Data file."}, "MDA-MB-231 cells [2]": {"test_system": "MDA-MB-231 cells", "assay": "Cell proliferation assay (IncuCyte confluence), MDA-MB-231", "protocol": "Cell proliferation was measured by a label-free, non-invasive cellular confluence assay using IncuCyte Live-Cell Imaging Systems (Essen Bioscience, Ann Arbor, MI, USA). MDA-MB-231 breast cancer and A549 lung carcinomas cells (1500 cells in 150 μl/well) were seeded overnight on a clear 96-well plate. Twenty-four hours later, the cells were treated with 0.1% DMSO, or different concentrations of Rasarfin (as indicated), or 10 µM of 21.4 or 21.8 for 96 h total. The plate was placed in an XL-3 incubation chamber maintained at 37 °C and the cells were photographed using a ×4 objective, every 3 h for 4 days. Cell confluence was calculated using IncuCyte S3 software (2019A) and cell proliferation was expressed as an increase in the percentage of confluence. Experiments were done in triplicate and repeated three times."}, "MDA-MB-231 cells [3]": {"test_system": "MDA-MB-231 cells", "assay": "Cell viability assay (MTT), MDA-MB-231", "settings": "for cell viability (MTT signal): S_Fig12f, listed as Comp 21.8", "protocol": "MDA-MB-231 breast cancer cells and A549 lung carcinomas (1500 cells in 150 μl/well) were seeded overnight on a clear 96-well plate. Twenty-four hours later, the cells were treated with 0.1% DMSO, or different concentrations of Rasarfin (as indicated), or 10 µM of 21.4, 21.8 (MDA-MB-231 breast cancer cells) or Doxorubicin for the indicated times at 37 °C. At each time point, 10 μl of 5 mg/ml MTT was added to each well and the plates were incubated for an additional 4 h at 37 °C. The absorbance at 590 nm was measured by plate reader. Experiments were done in triplicate and repeated three times."}}, "note": "pIC50: −log10 of the molar value. Values joined by “and” are separate entries in the source; they are usually repeats but may differ in a detail not shown here. Equal values may be shown once."}
{"smiles": "CC(C)C(=O)N1CCN(c2ccc(NC(=O)c3cc4ccccc4o3)cc2Cl)CC1", "note": "[Compound 21]", "values": [{"measurement": "AngII-mediated phosphorylation of ERK1/2", "setting": "[1]; 50 μM", "result": "totally inhibited"}, {"measurement": "p-ERK1/2 over ERK1/2, normalized to basal (0 min), AT1R", "setting": "[1]; time 0 min", "result": 1}, {"measurement": "p-ERK1/2 over ERK1/2, normalized to basal (0 min), AT1R", "setting": "[1]; time 2 min", "result": "0.1554 and 0.4142 and 0.5216 and 8.819"}, {"measurement": "p-ERK1/2 over ERK1/2, normalized to basal (0 min), AT1R", "setting": "[1]; time 5 min", "result": "0.1741 and 0.568 and 0.6273 and 10.8319"}, {"measurement": "Mean Diff. DMSO vs. compound of P-ERK/ERK (fold over Basal) (Dunnett's multiple comparisons test)", "setting": "[1]; Fig.8b", "result": 6.88}, {"measurement": "pIC50", "setting": "[1]; Homo sapiens, read-out: IC50 for inhibition of ERK1/2 activation by AT1R", "result": 5.30}, {"measurement": "ERK 1/2 activation, AT1R (p-ERK1/2 over ERK1/2, fold over basal)", "setting": "[1]; Log [Comp 21] (M) -4.3", "result": "17.8621 percent compared to DMSO and 9.459 percent compared to DMSO and 11.994 percent compared to DMSO"}, {"measurement": "ERK 1/2 activation, AT1R (p-ERK1/2 over ERK1/2, fold over basal)", "setting": "[1]; Log [Comp 21] (M) -5", "result": "18.3493 percent compared to DMSO and 17.9264 percent compared to DMSO and 17.6879 percent compared to DMSO"}, {"measurement": "ERK 1/2 activation, AT1R (p-ERK1/2 over ERK1/2, fold over basal)", "setting": "[1]; Log [Comp 21] (M) -5.3", "result": "58.8009 percent compared to DMSO and 49.3558 percent compared to DMSO and 49.3771 percent compared to DMSO"}, {"measurement": "ERK 1/2 activation, AT1R (p-ERK1/2 over ERK1/2, fold over basal)", "setting": "[1]; Log [Comp 21] (M) -6", "result": "81.7633 percent compared to DMSO and 93.0329 percent compared to DMSO and 113.57 percent compared to DMSO"}, {"measurement": "ERK 1/2 activation, AT1R (p-ERK1/2 over ERK1/2, fold over basal)", "setting": "[1]; Log [Comp 21] (M) -6.3", "result": "97.88 percent compared to DMSO and 83.5696 percent compared to DMSO"}, {"measurement": "ERK 1/2 activation, AT1R (p-ERK1/2 over ERK1/2, fold over basal)", "setting": "[1]; Log [Comp 21] (M) -7", "result": "100 percent compared to DMSO"}, {"measurement": "MDA-MB-231 cell growth (confluency)", "setting": "MDA-MB-231 cells [2]; various concentrations of Rasarfin", "result": "dose-dependent reduction in cell growth over time"}, {"measurement": "MDA-MB-231 cell viability (MTT)", "setting": "MDA-MB-231 cells [3]; Doxorubicin 10 µM", "result": "cell viability was not affected"}, {"measurement": "metabolic activity of MDA-MB-231 cells (MTT)", "setting": "MDA-MB-231 cells [3]; after 48 and 72 h of treatment, compared to DMSO", "result": "modestly decreased in a dose-dependent manner the metabolic activity of cancer cells"}]}
{"smiles": "CCCC(=O)N1CCN(c2ccc(NC(=O)c3cc4ccccc4o3)cc2Cl)CC1", "note": "[Compound 21.8]", "values": [{"measurement": "inhibition of AT1R-mediated ERK1/2 (MAPK) activation (Fig. 8b)", "setting": "[1]; 50 μM", "result": "maintained its MAPK inhibitory property"}, {"measurement": "MDA-MB-231 cell proliferation (confluency)", "setting": "MDA-MB-231 cells [2]; 10 µM", "result": "inhibited cell proliferation"}, {"measurement": "metabolic activity of MDA-MB-231 cells (MTT)", "setting": "MDA-MB-231 cells [3]; 10 µM", "result": "moderately decreasing the metabolic activity of cancer cells"}, {"measurement": "cell viability (MTT signal)", "setting": "MDA-MB-231 cells [3]; 24h", "result": "0.2449 and 0.2125 and 0.1916"}, {"measurement": "cell viability (MTT signal)", "setting": "MDA-MB-231 cells [3]; 48h", "result": "0.2769 and 0.2869 and 0.2058"}, {"measurement": "cell viability (MTT signal)", "setting": "MDA-MB-231 cells [3]; 72h", "result": "0.2794 and 0.3667 and 0.3826"}]}
{"smiles": "Nn1cnc2scc(-c3ccc(Cc4ccccc4)cc3)c2c1=O", "note": "[Barbadin, reference compound]", "values": [{"measurement": "MAPK promoted by AT1R", "setting": "[1]; Barbadin 100 µM", "result": "ineffective at blocking MAPK"}]}
